In US20070237848A1, “MORINDA CITRIFOLIA BASED COMPOSITIONS FOR TREATMENT OF ANTI-INFLAMMATORY DISEASES THROUGH INHIBITION OF COX-1, COX-2, INTERLEUKIN-1beta, INTERLEUKIN-6, TNF-alpha, HLE, AND iNOS” (priority 2005, published 2007):

Columns and labels:
[1] = system: inducible Nitrite Oxide Synthase (iNOS); assay: iNOS assay in LPS-stimulated murine macrophages (J774A.1); assay type: cell-based; settings: standard reference agent
Description: An iNOS Assay was performed as follows. Murine Macrophages (1.5*10^5 cells/well) were seeded for 24 hours. After preincubating the samples with the cells at room temperature for 10 minutes, the reaction was started with 1 μg/ml LPS (E.coli 055:B5). The incubation time was 24 hours at 37° C. and 5% CO 2. The controls [t(0)] were performed without LPS stimulation. The quantification of Nitric Oxide was performed with a Nitric Oxide Colorimetric Assay Kit from BioVision (Art.Nr: #K262-200). The optical densities were measured at λ=570 nm. […] Sample points were measured in triplicate. […] The following tables and charts and FIG. 9 summarize the assay and the results.

[2] = molecular target: T1, Human Leukocyte Elastase (HLE) (Homo sapiens, UniProt P08246); assay: Leukocyte Elastase Assay (p-Nitroaniline, photometric); assay type: biochemical; settings: standard reference agent
T1 sequence (P08246 30-267): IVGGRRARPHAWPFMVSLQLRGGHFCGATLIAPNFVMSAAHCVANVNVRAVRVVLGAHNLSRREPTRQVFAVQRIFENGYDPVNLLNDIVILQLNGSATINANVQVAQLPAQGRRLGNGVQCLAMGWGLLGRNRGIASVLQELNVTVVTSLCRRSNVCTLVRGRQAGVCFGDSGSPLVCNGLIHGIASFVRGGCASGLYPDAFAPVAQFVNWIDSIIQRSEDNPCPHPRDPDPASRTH
Description: A Leukocyte Elastase Assay was performed as follows. After preincubating the samples with the enzyme HLE (20 nM) at room temperature for 10 minutes, the reaction was started with an enzyme substrate (5 mM). The reaction time was 15 min at room temperature. The controls [t(0)] were performed without enzyme. […] The quantification of p-Nitroaniline was performed by direct photometrical measurement.
All sample points were measured in duplicate. […] The following tables, charts, and FIGS. 8A and 8B summarize the assay and the results.

| Compound | IC50 [1] [µM] | IC50 [2] [µM] |
| --- | --- | --- |
| COC(=O)[C@@H](N)CCCNC(=N)N[N+](=O)[O-] [L-NAME] | 600 |  |
| C[C@H]1[C@H](C)CC[C@]2(C(=O)O)CC[C@]3(C)C(=CC[C@@H]4[C@@]5(C)CC[C@H](O)C(C)(C)[C@@H]5CC[C@]43C)[C@H]12 [Ursolic acid] |  | 30 |
